{
  "source": "patent US20240247048A1",
  "about": "(EMORY UNIVERSITY, priority 2021, published 2024)",
  "key": {"[1]": {"test_system": "tumor infiltrating T cells in KPC-Luc tumors", "assay": "analysis of tumor infiltrating T cells in subcutaneous KPC-Luc tumors (flow cytometry, Nanostring, TCR sequencing, tetramer)", "format": "in vivo, mouse", "protocol": "FIGS. 19A, 19B, 19C, 19D, 19E, 19F, 19G, 19H and 19I show increased T cell activation and reduced frequency of Tregs in KPC.Luc tumors treated with a combination of VIP-R antagonist and anti-PD-1. Subcutaneous KPC.Luc tumors in C57BL/6 mice treated with ANT008 and/or anti-PD-1 (n=5 per treatment group), were analyzed via flow cytometry 10 days after treatment for proportion of (FIG. 19A) CD4+ and (FIG. 19B) CD8+ T cells expressing Ki67, IFN gamma, IL-4, PD-1 and Tim-3. (FIG. 19C) Representative flow plots showing the gating strategy used to quantify CD25+FoxP3+ Tregs. (FIG. 19D) Percentage of Tregs in tumors of the different treatment groups (n=5 per treatment group). Volcano plot showing differential expression of genes in T cells from (FIG. 19E) ANT008+ isotype IgG (IgG) vs scrambled peptide (Scram)+ isotype IgG, (FIG. 19F) scrambled peptide+anti-PD-1 vs scrambled peptide+isotype IgG and (FIG. 19G) ANT008+anti-PD-1 vs scrambled peptide+isotype IgG (n=3 mice per treatment group). Horizontal black line represents false discovery rate (FDR)<0.1. […] (FIG. 19H) Heat map showing gene expression changes in genes associated with TCR activation and co-stimulation. (FIG. 19I) TCR activation and co-stimulation pathway score between the T cells in tumors of mice from the different treatment groups. Statistical differences in FIGS. 19A, 19B, 19D and 19I were calculated via ANOVA followed by Dunnett's post-test. Error bars show mean±SEM *p<0.05, **p<0.001, ***p<0.0001.\n(FIG. 20A) Box and whiskers plot showing Shannon's Entropy in T cells of KPC.Luc tumors in each treatment group. (FIG. 20B) List showing TCR-0 amino acid sequences shared between samples of each treatment group and (FIG. 20C) the frequencies of the shared clones in each treatment group. Sequences are color coded to represent number of mice per group (n=4) that share the specific TCR-β clone. CD8+ in subcutaneous KPC.Luc tumors were stained with MuLV p15E-H2Kb tetramer after 10 days of treatment with ANT308 and/or anti-PD-1 (n=3 per treatment group) using the (FIG. 20D) gating strategy and (FIG. 20E) quantified. […] Statistical differences in a and e were calculated via ANOVA followed by Dunnett's post-test and in FIG. 20F and FIG. 20G were calculated using Log-rank test. […]\nIncreased T cell activation in tumors of mice treated with a combination of VIP-R antagonist and anti-PD-1. To investigate whether inhibiting VIP-R signaling promotes T cell activation in vivo, the study analyzed tumor infiltrating T cells in subcutaneous KPC-Luc tumors for differences in activation markers. […]"}, "[2]": {"test_system": "MT5, KPC-Luc, Panc02, BXPC3, Capan-02 PDAC cell lines", "assay": "cell viability assay (MTT) of PDAC cell lines", "format": "cell-based, mouse and human", "settings": "0-5 uM, 72 hours; FIG. 13E, 24a", "protocol": "(FIG. 24A) Percentage viability of murine (MT5, KPC.Luc, Panc02) and human (Capan02, BxPC3) PDAC cell lines cultured in the presence of different concentrations ranging from 0-5 μM of ANT008 for 72 hours is plotted. Confirmation of CRISPR-Cas9 KO of VIPR2 encoding VPAC2 receptor via (FIG. 24B) western blot; (FIG. 24C) RT-PCR using primers targeting exon 9-12 downstream of targeted site and (FIG. 24D) Sanger Sequencing showing the validation of in-del mutation in exon 2. In vitro MTT assay showing (FIG. 24E) Proliferation of WT and KO cells over 72 hours; (FIG. 24F) Percent viability of wild type (WT) and VPAC2 KO (KO) Panc02 cells treated with ANT008 and ANT308 at 3 μM for 72 hours. (FIG. 24G) Tumor growth curve of WT versus KO Panc02 cells in C57BL/6 mice following subcutaneous tumor implantation. Values represent median tumor volume±95% confidence interval. (FIG. 24H) Kaplan-Meier survival plots corresponding to results in FIG. 24G. Median survival time for WT is 21 days and 28 days for VPAC2 KO. Error bars represent mean and standard deviation. *p<0.05, **p<0.01.\nCell viability assay. […] Cell viability was assessed using cell proliferation kit I from Roche (Basel, Switzerland), following the manufacturer's instructions. […] This was followed by incubation with solubilization buffer overnight and reading the absorbance at 570 nm. […]"}, "intraocular melanoma": {"test_system": "intraocular melanoma", "assay": "liver metastases in intraocular melanoma mouse model", "format": "in vivo"}},
  "data": [
    {"sequence": "KPRRPYTDNYTRLRKQMAVKKYLNLILN [ANT008]", "values": [
      {"measurement": "genes upregulated in TIL (Nanostring)", "setting": "[1]; >4-fold change, FDR<0.1, FIG. 19e-19g", "value": "no genes significantly upregulated"},
      {"measurement": "frequency of Tregs within the PDAC tumors", "setting": "[1]; FIG. 19c, 19d", "value": "significantly decreased"},
      {"measurement": "levels of PD-1+ Tim-3- T cells in CD4+ and CD8+ subsets", "setting": "[1]; monotherapy, 10 days after treatment, FIG. 19a, 19b", "value": "increased"},
      {"measurement": "number of clones shared by at least 2 samples among top 50 highest frequency TCR clones", "setting": "[1]; n=4 per group, FIG. 20b", "value": 6},
      {"measurement": "viability and growth of PDAC cell lines in vitro", "setting": "[2]", "value": "did not affect viability of PDAC cell lines in vitro, except a transient effect in MT5"}
    ]},
    {"sequence": "KPRRPYTSDYTRLRKQMAVKKYLNLILN [ANT308]", "values": [
      {"measurement": "growth of liver metastases", "setting": "intraocular melanoma; 3 weeks after tumor inoculation, N=6, FIG. 36", "value": "suppressed growth"},
      {"measurement": "size of intraocular melanoma", "setting": "intraocular melanoma; FIG. 38", "value": "not affected"},
      {"measurement": "angiogenesis of liver metastases", "setting": "intraocular melanoma; N=10, FIG. 37", "value": "inhibited angiogenesis"},
      {"measurement": "hepatic metastases in 3 weeks", "setting": "intraocular melanoma; n=6, FIG. 34", "value": "decreased"}
    ]}
  ]
}
